Measurements published in US9682056B2, “Oleacein for treating or preventing diseases resulting from atherosclerotic plaques” (Warszawski Uniwersytet Medyczny, priority 2012, dated 2017).

What was measured:
[1] = tested on: metalloproteinase-9 (MMP-9) production; experiment: MMP-9 production by LPS-stimulated atherosclerotic plaque from carotid artery, ELISA; format: cell-based; settings: Homo sapiens; plaques (n=15) from endoartherectomy patients; LPS 1 μg/ml stimulation; 24 hours at 37° C.; average±standard error; read-out: IC50, inhibition of MMP-9 production
Protocol: Atherosclerotic plaques (n=15) were obtained from patients subjected to endoartherectomy. The plaque obtained was divided into two portions, which were then incubated in buffered physiological saline (control), or buffered physiological saline in the presence of oleacein at the concentrations of 5, 10 and 20 μM for 24 hours at a temperature of 37° C. following prior stimulation with a solution of lipopolysaccharide at a concentration of 1 μg/ml. The unstimulated control consisted of physiological saline, in which the plaque was incubated for […]. The effect of oleacein on metalloproteinase-9 (MMP-9) production was determined using immunochemical ELISA (R&D System). The amount of MMP-9 (ng/ml) was calculated per mass of atherosclerotic plaque, and then described in terms of percentage in comparison to the stimulated control.

[2] = tested on: interleukin 10 (IL-10) production; experiment: IL-10 production by atherosclerotic plaque, ELISA; format: cell-based, human; settings: IL-10 amount per atherosclerotic plaque mass, % of stimulated control
From the text: The effects of olacein on interleukin 10 (IL-10) production were investigated with the use of the ELISA immunochemical method (R&D system). The IL-10 amounts were converted into the atherosclerotic plaque mass and, subsequently, determined in % compared to the stimulated control.

C/C=C(/C=O)[C@@H](CC=O)CC(=O)OCCc1ccc(O)c(O)c1 [oleacein]
IC50 [1]: 9.07 ± 1.2 µM | IL-10 production compared to the stimulated control [2]: about 267.1±61.5%
